# Results as given in ChEMBL document CHEMBL3046648, “Herbicidally Active N-(1-Arylethenyl)-2-chloroacetamides Bearing an Alkyloxyalkyl Moiety” (1991).
# Where “and” joins values, the source holds several entries; their conditions need not be identical. Identical values can stand only once.
# Tests used:
# Type in all cases: functional
# Pontederia vaginalis [1] = assay: Herbicidal activity against Monochoria vaginalis assessed as killing at 1 g/a at 25 degC measured after 3 weeks
# Echinochloa oryzicola [2] = assay: Herbicidal activity against Echinochloa oryzicola assessed as killing at 10 g/a at 25 degC measured after 3 weeks
# Cyperus difformis [3] = assay: Herbicidal activity against Cyperus difformis assessed as killing at 10 g/a at 25 degC measured after 3 weeks
# Pontederia vaginalis [4] = assay: Herbicidal activity against Monochoria vaginalis assessed as killing at 10 g/a at 25 degC measured after 3 weeks
# Cyperus difformis [5] = assay: Herbicidal activity against Cyperus difformis assessed as killing at 1 g/a at 25 degC measured after 3 weeks
# [6] = Herbicidal activity against annual broad-leaf weeds assessed as killing at 1 g/a at 25 degC measured after 3 weeks
# Echinochloa oryzicola [7] = assay: Herbicidal activity against Echinochloa oryzicola assessed as killing at 1 g/a at 25 degC measured after 3 weeks
# [8] = Herbicidal activity against annual broad-leaf weeds assessed as killing at 10 g/a at 25 degC measured after 3 weeks
# [9] = tested on: Schoenoplectiella juncoides; assay: Herbicidal activity against Schoenoplectiella juncoides assessed as killing at 10 g/a at 25 degC measured after 3 weeks
# [10] = tested on: Schoenoplectiella juncoides; assay: Herbicidal activity against Schoenoplectiella juncoides assessed as killing at 1 g/a at 25 degC measured after 3 weeks
SMILES,Activity (Pontederia vaginalis [1]) [%],Activity (Echinochloa oryzicola [2]) [%],Activity (Cyperus difformis [3]) [%],Activity (Pontederia vaginalis [4]) [%],Activity (Cyperus difformis [5]) [%],Activity [6],Activity (Echinochloa oryzicola [7]) [%],Activity [8] [%],Activity [9] [%],Activity [10] [%]
COCCN(C(=O)CCl)C(=C(C)C)c1ccc(C)cc1,60,100,100,100,100,80%,80,100,100,80
COCCCN(C(=O)CCl)C(=C(C)C)c1ccccc1,100,100,100,100,60,0%,60,100,100,40
COCCN(C(=O)CCl)C(=C(C)C)c1cccc(Oc2ccccc2)c1,0,100,100,100,80,40%,100,100,60,60
COCCN(C(=O)CCl)C(=C(C)C)c1ccco1,0,100,100,100,20,,100,100,100,40
CCOC(=O)C(CC)N(C(=O)CCl)C(=C(C)C)c1ccccc1 (centres undefined),,80,40,40,,,,80,60,
COCCN(C(=O)CCl)C(=C(C)C)c1ccc(SC)cc1,0,100,100,100,60,100%,40,100,100,0
CC(C)=C(c1ccccc1)N(CCCOC(C)C)C(=O)CCl,,100,100,100,,,,100,100,
C=C(c1ccccc1)N(CCOC)C(=O)CCl,,100,80,40,,,,80,60,
COCCN(C(=O)CCl)C(=C(C)C)c1ccc(OC)cc1,80,100,100,100,100,0%,80,100,100,80
CCC(C)=C(c1ccccc1)N(CCOC)C(=O)CCl,0,100,100,100,80,40%,80,100,100,0
COCCN(C(=O)CCl)C(=C(C)C)c1ccccc1Cl,0,100,100,100,100,0%,80,100,100,80
COCCN(C(=O)CCl)C(=C(C)C)c1cccs1,100,100,100,100,100,0%,100,100,100,100
CCCOCCN(C(=O)CCl)C(=C(C)C)c1ccccc1,100,100,100,100,100,,100,100,100,80
COC(CN(C(=O)CCl)C(=C(C)C)c1ccccc1)OC,0,100,100,100,100,80% and 100%,40,100,100,0
COCCN(C(=O)CCl)C(=C(C)C)c1ccc(OC)c(OC)c1,60,100,100,100,80,,80,100,100,60
CCOC(=O)C(C)N(C(=O)CCl)C(=C(C)C)c1ccccc1 (centres undefined),,100,100,100,,,,100,100,
COCCN(C(=O)CCl)C(=C(C)C)c1ccc(Br)cc1,100,100,100,100,100,80%,100,100,100,80
CCOC(=O)CN(C(=O)CCl)C(=C(C)C)c1ccccc1,,100,80,40,,,,80,40,

SMILES,Activity (Pontederia vaginalis [1]) [%],Activity (Echinochloa oryzicola [2]) [%],Activity (Cyperus difformis [3]) [%],Activity (Pontederia vaginalis [4]) [%],Activity (Cyperus difformis [5]) [%],Activity [6],Activity (Echinochloa oryzicola [7]) [%],Activity [8] [%],Activity [9] [%],Activity [10] [%]
CCOC(CN(C(=O)CCl)C(=C(C)C)c1ccccc1)OCC,0,100,100,100,40,,0,100,100,0
C=CCOCC(C)N(C(=O)CCl)C(=C(C)C)c1ccccc1 (centres undefined),40,100,100,100,60,100%,40,100,100,60
COCCN(C(=O)CCl)C(=C(C)C)c1ccc(C)o1,,100,100,100,,,,100,100,
COCCN(C(=O)CCl)C(=C(C)C)c1ccc(Cl)cc1,100,100,100,100,100,100%,100,100,100,80
COCCN(C(=O)CCl)C(=C(C)C)c1cc(C(C)C)ccc1C,0,100,100,100,0,,60,100,100,0
COCCN(C(=O)CCl)C(=C(C)C)c1ccccc1OC,0,100,80,100,0,0%,0,,100,0
CC(C)=C(c1ccccc1)N(CCOC/C=C/c1ccccc1)C(=O)CCl,,20,0,0,,,,0,40,
COCCN(C(=O)CCl)C(=C(C)C)c1cccc2ccccc12,,100,80,60,,,,60,60,
COC=C(c1ccccc1)N(CCOC)C(=O)CCl,,100,60,0,,,,0,40,
COCCN(C(=O)CCl)C(=C(C)C)c1cccc(Oc2ccc(Cl)cc2)c1,,100,100,100,,,,100,80,
CCCCC=C(c1ccccc1)N(CCOC)C(=O)CCl,,80,80,100,,,,80,100,
CCCCCOCCN(C(=O)CCl)C(=C(C)C)c1ccccc1,,80,80,0,,,,80,60,
COC(=O)C(C)N(C(=O)CCl)C(=C(C)C)c1ccccc1 (centres undefined),,100,80,80,,,,80,100,
C/C=C/COCCN(C(=O)CCl)C(=C(C)C)c1ccccc1,,100,100,100,,,,80,100,
CC(C)=C(c1ccccc1)N(CCOCC(F)(F)F)C(=O)CCl,,100,100,60,,,,60,80,
CCCCOCN(C(=O)CCl)c1c(CC)cccc1CC [BUTACHLOR],,100,100,100,,,,100,100,
CSCCN(C(=O)CCl)C(=C(C)C)c1ccccc1,,60,0,0,,,,0,20,
